Activity calls are given as the source filed them. How the calls were made is not given here.
Experiment: cellular cytoskeleton assembly phenotype modulators – imaging, high-content imaging, retest and dose response, confirmation (AID 1249);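 further: compound exposure lasted 24 h before fixation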;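 on inhibition: plate controls were untreated cells for no effect and reference compound treated cells for full effect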
Conditions: cell-based imaging, cytoskeleton assembly phenotype, high content; at 2 µM; stronger effect = higher value

Row | Compound | inhibition
1 | Cc1ccccc1-c1nc(CN2CCC(C(=O)NCCCN3CC(C)CC(C)C3)CC2)c(C)o1 (stereo not drawn) | 0.8% (inactive)
2 | O=C(O)C1CCC(N2C(=O)C3CCCCC3C2=O)CC1 (stereo not drawn) | -0.4% (inactive)
3 | CCn1c(Cc2ccccc2)nnc1SCC(=O)NC1CC1 | 10.7% (inactive)
4 | Cc1nc(SCc2ccc(Br)cc2)[nH]c(=O)c1C | -1.2% (inactive)
5 | Cc1cc(C)n(-c2nc3ccccc3nc2N2CCN(C(=O)c3ccc(Cl)cc3)CC2)n1 | -2.4% (inactive)
6 | CC(/C=C/c1ccco1)=N\NC(=O)c1cc(C)[nH]n1 | -14.4% (inactive)
7 | CC(C)(C)NC(=O)CSc1nsc(SCC(=O)NC(C)(C)C)c1C#N | -0.7% (inactive)
8 | CC(C)c1nnc(NC(=O)CCC(=O)N2CCN(C3CCCCC3)CC2)s1 | 3.6% (inactive)
9 | COc1cc(/C=N/NC(=O)Nc2ccccc2)ccc1OCCOc1ccccc1C | 3.1% (inactive)
10 | CC(C)(C)C(=O)/C(=C\c1cccc([N+](=O)[O-])c1)n1cncn1 | 0.1% (inactive)
11 | COc1cc(/C=C(/C#N)C(=O)NCCc2c[nH]c3ccccc23)ccc1OCc1ccccc1F | 2.3% (inactive)
12 | Cc1ccccc1NC1=C/C(=N\S(=O)(=O)c2cccs2)c2ccccc2C1=O | -3.8% (inactive)
13 | CCCOC(=O)NC(CC)COC(=O)Nc1cccc(C)c1C (stereo not drawn) | -5% (inactive)
14 | COc1ccc(/C=N/NC(=O)c2ccccc2Cl)cc1CSc1nc2ccccc2s1 | -6.6% (inactive)
15 | Cc1ccc(OCC(O)CN2CCN(CC(O)COc3ccc(C)cc3)CC2)cc1 (stereo not drawn) | 10.9% (inactive)
16 | O=[N+]([O-])c1ccc(O)c(/C=N/Nc2ccc(Cl)nn2)c1 | -6.8% (inactive)
17 | CN(Cc1ccccc1)C(=O)c1ccccc1NC(=O)c1ccccc1 | 5.1% (inactive)
18 | CCN(CC)S(=O)(=O)c1ccc(NC(=O)C(C)N(c2ccc(OC)cc2)S(C)(=O)=O)cc1 (stereo not drawn) | -14.1% (inactive)
19 | CCCc1nc(SCC(=O)N2CCc3ccccc32)c2c(C)c(C)sc2n1 | 2.2% (inactive)
20 | O=c1c2ccccc2nc(/C=C/c2ccc([N+](=O)[O-])o2)n1CCCO | -3.1% (inactive)
21 | Cc1cc(C)n(C(=O)c2ccc(NC(=O)C3COc4ccccc4O3)cc2)n1 (stereo not drawn) | 1.1% (inactive)
22 | O=[N+]([O-])/C=C/c1c(OCc2ccccc2)ccc2ccccc12 | -14.2% (inactive)
23 | O=C(CSc1nc2ccccc2s1)NNC(=S)Nc1ccc(Br)cc1 | -0.6% (inactive)
24 | CCCCOCCCNC(=O)c1cccs1 | -7.7% (inactive)
25 | CCOC(=O)Cn1nnnc1CN(CCc1ccccc1)Cc1cc2cc(CC)ccc2[nH]c1=O | 1.3% (inactive)

Row | Compound | inhibition
26 | COc1ccc(N2CCN(C(=O)CSc3nnc4c(C)cc5cc(C)ccc5n34)CC2)cc1 | 3.6% (inactive)
27 | Cc1cc(NC(=O)C(=O)NCCN2CCN(C(=O)c3cccs3)CC2)ccc1Br | 0.6% (inactive)
28 | O=C(CS(=O)c1ccc(C(F)(F)F)cc1[N+](=O)[O-])Oc1ccc(Cl)cc1 (stereo not drawn) | 5.2% (inactive)
29 | CN(C)c1cccc(C(=O)Nc2ccc(N3CCOCC3)cc2)c1 | -5.4% (inactive)
30 | COc1ccc(CCN(Cc2cc3cccc(C)c3[nH]c2=O)C(=O)N2CCCC2)cc1OC | 4.4% (inactive)
31 | Nc1ccccc1NC(=O)c1ccccc1N | 3.6% (inactive)
32 | Cc1cc(C)cc(OCC(=O)Nc2nonc2NC(=O)COc2cc(C)cc(C)c2)c1 | -12% (inactive)
33 | CC(C)(CO)NC(=O)CCCOc1ccc(Cl)cc1Cl | -0.1% (inactive)
34 | COC(=O)c1sccc1NC(=O)c1ccc(Br)s1 | 1.8% (inactive)
35 | O=C(C1CCC1)N1CCc2cc(S(=O)(=O)Nc3ccc4c(c3)OCCO4)ccc21 | 3.8% (inactive)
36 | OCCN=C(c1ccccc1)C12CN3CN(CN(C3)C1)C2 | -2.8% (inactive)
37 | Cc1ccc(-c2noc(CSc3nc(N)cc(N)n3)n2)cc1 | -8.4% (inactive)
38 | COCCCNC(=S)NC1CC2CCCC(C1)N2Cc1ccco1 (stereo not drawn) | 4.7% (inactive)
39 | CCOC(=O)c1cnn(-c2nc(-c3ccc(C)cc3)cs2)c1C(F)(F)F | -7.1% (inactive)
40 | Cc1oc2cc3c(C(=O)N4CCCCC4)c(C)oc3cc2c1C(=O)N1CCCCC1 | -4.7% (inactive)
41 | Cc1ccc(CC2S/C(=C(/C#N)C(=O)NCc3ccco3)N(c3ccccc3)C2=O)cc1 (stereo not drawn) | 2.8% (inactive)
42 | Cc1nn(CC(=O)Nc2ccc(C(=O)N(C)C)cc2)c(=O)c2ccccc12 | 4.3% (inactive)
43 | O=C(NCCO)C(c1ccccc1)c1ccccc1 | 3.5% (inactive)
44 | Clc1ccc2nc(CSc3nc4ccccc4o3)cn2c1 | 14.4% (inactive)
45 | O=C(N/N=C/C=C/c1ccccc1)c1n[nH]c2c1CCC2 | 2% (inactive)
46 | Cn1c(SCc2nc(-c3ccc(Cl)cc3)no2)nnc1-c1cccs1 | 16.1% (inactive)
47 | C=CCN1C(=O)/C(=C2/Sc3ccccc3N2CCCS(=O)(=O)O)SC1=S | 0.3% (inactive)
48 | Cc1ccc(NC(=O)c2oc3c(c2C)C(=O)CC(C)(C)C3)cc1 | -7.9% (inactive)
49 | COc1cc(C(=O)Nc2ccc(S(=O)(=O)NC(C)(C)C)cc2)cc(OC)c1OC | -3.5% (inactive)
50 | CCCCNC(=O)CSc1cc(=O)n(C)c2ccccc12 | -21.1% (inactive)

Row | Compound | inhibition
51 | Cc1ccc(-n2ncc3c(N4CCN(c5ccccc5)CC4)ncnc32)c(C)c1 | -18.4% (inactive)
52 | CC(=NCCCO)c1c(O)n(Cc2ccccc2)c(=O)[nH]c1=O | 3.6% (inactive)
53 | CC(=O)Nc1ccc(S(=O)(=O)n2cnc(C)c2)cc1 | 6.7% (inactive)
54 | CC(=O)Nc1ccc(NC2(C)C(=O)c3ccccc3C2=O)cc1 | 0.7% (inactive)
55 | CC1(C)OC(=O)C(=NNc2ccc(O)cc2)C(=O)O1 | -11.1% (inactive)
56 | O=C(c1cc(-c2ccncc2)nc2ccc(Br)cc12)N1CCN(c2ccccn2)CC1 | -1% (inactive)
57 | CC/C(=N\NC(=O)CNC(=O)/C=C/c1ccco1)c1ccccc1 | -9.3% (inactive)
58 | CC1=C(C(=O)OCCOC(C)C)C(c2cccnc2)C2=C(CCCC2=O)N1 (stereo not drawn) | -18.2% (inactive)
59 | Oc1ccc(Nc2nc(-c3ccc4ccccc4c3)cs2)cc1 | -9.7% (inactive)
60 | COc1ccc(S(=O)(=O)NC(CC(=O)NCc2ccco2)C(C)C)cc1 (stereo not drawn) | -5.2% (inactive)
61 | O=C(CN1CCCCCC1=O)OCc1ncc(-c2ccccc2)o1 | -11.1% (inactive)
62 | CCC(C)[C@@H](NC(=O)OC(C)(C)C)c1nnc(S(=O)(=O)Cc2cccc(C)c2)o1 (stereo partly drawn) | 1.2% (inactive)
63 | Cc1nn(S(=O)(=O)c2ccccc2)c(C)c1Sc1ccc([N+](=O)[O-])cc1 | 2.5% (inactive)
64 | CCOC(=O)Cc1cc(-c2ccc(O)cc2)nc2ccc3ccccc3c12 | -11.7% (inactive)
65 | CN(Cc1ccccc1)S(=O)(=O)c1ccc(NC(=S)NC(=O)C2CCCC2)cc1 | -1.4% (inactive)
66 | CCN1CCN(Cc2c(C)[nH]c3ccc(C(=O)OC)cc3c2=O)CC1 | -6.7% (inactive)
67 | O=C1CCCc2c1[nH]c1ccc(Cl)cc21 | -17.2% (inactive)
68 | Cc1cc(C(=O)CSc2nnc(-c3ccc(F)cc3)o2)c(C)n1CC1COc2ccccc2O1 (stereo not drawn) | -0.5% (inactive)
69 | O=C1c2cccc3c([N+](=O)[O-])ccc(c23)C(=O)N1c1ccc(Cl)cn1 | -13.4% (inactive)
70 | COC(=O)CCSc1nccn1Cc1ccccc1 | -9.8% (inactive)
71 | COC(=O)c1c(NC(=O)c2ccc(S(=O)(=O)N3CCOCC3)cc2)sc2c1CCN(C)C2 | -2.4% (inactive)
72 | Cc1ccc(Nc2nc(CSc3nnnn3C)cs2)cc1 | -5.6% (inactive)
73 | COc1cc2[nH]cc(C(=O)NCCc3ccccc3)c(=O)c2cc1OC | 1.5% (inactive)
74 | O=C(NC1CC1)c1ccc(S(=O)(=O)NCC2CCCCC2)cc1 | -2.7% (inactive)
75 | O=C(CCCCCN1C(=O)c2ccccc2C1=O)Nc1nccs1 | 8.8% (inactive)

Row | Compound | inhibition
76 | CN1CCCCc2c1[nH]c1ccccc1c2=O | 5.2% (inactive)
77 | CC(C)C(=O)N1CCN(c2nc(-c3ccccc3)c3c(c2C#N)CC(C)(C)OC3)CC1 | -5.6% (inactive)
78 | Nc1sccc1C(=O)c1ccc(Cl)cc1 | -15.5% (inactive)
79 | NCCN1CCN(CCN)CC1 | -3% (inactive)
80 | CCNc1nc(NCC)n2c(SCc3ccc(F)cc3)nnc2n1 | 4.8% (inactive)
81 | CCOc1ccccc1/C=N/Nc1ccccc1[N+](=O)[O-] | -0.7% (inactive)
82 | Nc1ccc2nc(-c3ccc(N)c(Cl)c3)[nH]c2c1 | 11.4% (inactive)
83 | CCc1nnc(NC(=O)C2c3ccccc3Oc3ccccc32)s1 | 2.3% (inactive)
84 | COC(=O)C1C(=O)C2=C(CC1C)NC(=O)CC2c1cccc(C)c1 (stereo not drawn) | -3.5% (inactive)
85 | O=C(O)C1CC=CCC1C(=O)N1CCCC1 (stereo not drawn) | 5.5% (inactive)
86 | O=C(Nc1ccc(Oc2ccccc2)cc1)C1CCCN(c2ncccn2)C1 (stereo not drawn) | 11.6% (inactive)
87 | Cc1ccc(OCC(=O)N2CCN(C(=O)Cc3ccccc3)CC2)cc1 | -4.3% (inactive)
88 | COc1ccc(OC)c(C2CC(=O)c3c([nH]c(C(=O)OC(C)C)c3C)C2)c1 (stereo not drawn) | 8.4% (inactive)
89 | COc1ccc(CS(=O)(=O)/C(Cl)=C(/Cl)C(=O)Nc2ccc(OC)nc2)cc1 | -6.2% (inactive)
90 | O=C(CN1CCC(c2nc3ccccc3s2)CC1)NCc1cccs1 | 4% (inactive)
91 | COc1ccc(-c2nc(-c3ccc(NC(=O)c4ccc(Br)o4)cc3)no2)cc1OC | -10.3% (inactive)
92 | CCOC1=NC(C(=O)O)c2ccccc2/C(=C(/C)Cl)N1 (stereo not drawn) | -4.3% (inactive)
93 | COC(=O)c1[nH]c2cc(OC)ccc2c1NC(=O)CN1CCC(C(N)=O)(N2CCCCC2)CC1 | 3.6% (inactive)
94 | COc1ccc2[nH]c(=O)c(CN(Cc3ccc4c(c3)OCO4)C(C)=O)cc2c1 | 5.1% (inactive)
95 | CCCc1nc(SCC(=O)Nc2nnc(CC)s2)c2c(C)c(C)sc2n1 | 8.7% (inactive)
96 | CCCCC(=O)NC(=S)Nc1ccccc1C(=O)Nc1ccccc1 | 3.2% (inactive)
97 | Cc1cc(NC(=O)CSc2nnnn2C)n(-c2ccccc2)n1 | -7.2% (inactive)

Same assay, conditions: cell-based imaging, cytoskeleton assembly phenotype, high content; cell count; at 10 µM; stronger effect = lower value

Row | Compound | cell count [%]
98 | COCCOC(=O)c1[nH]c2c(c1C)C(=O)CC(c1ccccc1)C2 (stereo not drawn) | 56

— PubChem BioAssay AID1249 (Columbia University Molecular Screening Center, 2008)
